Test results from US20160145257A1, “SUBSTITUTED XANTHINES AND METHODS OF USE THEREOF” (Hydra Biosciences, Inc., priority 2013, published 2016).
Counter-ions that a name gives are not always drawn.

Target: T1, hTRPC5 (Homo sapiens, UniProt Q9UL62)
T1 construct: expressed in transfected cells; host or cells: HEK293 TREx cells with inducible TRPC5 expression
T1 sequence (Q9UL62 1-973): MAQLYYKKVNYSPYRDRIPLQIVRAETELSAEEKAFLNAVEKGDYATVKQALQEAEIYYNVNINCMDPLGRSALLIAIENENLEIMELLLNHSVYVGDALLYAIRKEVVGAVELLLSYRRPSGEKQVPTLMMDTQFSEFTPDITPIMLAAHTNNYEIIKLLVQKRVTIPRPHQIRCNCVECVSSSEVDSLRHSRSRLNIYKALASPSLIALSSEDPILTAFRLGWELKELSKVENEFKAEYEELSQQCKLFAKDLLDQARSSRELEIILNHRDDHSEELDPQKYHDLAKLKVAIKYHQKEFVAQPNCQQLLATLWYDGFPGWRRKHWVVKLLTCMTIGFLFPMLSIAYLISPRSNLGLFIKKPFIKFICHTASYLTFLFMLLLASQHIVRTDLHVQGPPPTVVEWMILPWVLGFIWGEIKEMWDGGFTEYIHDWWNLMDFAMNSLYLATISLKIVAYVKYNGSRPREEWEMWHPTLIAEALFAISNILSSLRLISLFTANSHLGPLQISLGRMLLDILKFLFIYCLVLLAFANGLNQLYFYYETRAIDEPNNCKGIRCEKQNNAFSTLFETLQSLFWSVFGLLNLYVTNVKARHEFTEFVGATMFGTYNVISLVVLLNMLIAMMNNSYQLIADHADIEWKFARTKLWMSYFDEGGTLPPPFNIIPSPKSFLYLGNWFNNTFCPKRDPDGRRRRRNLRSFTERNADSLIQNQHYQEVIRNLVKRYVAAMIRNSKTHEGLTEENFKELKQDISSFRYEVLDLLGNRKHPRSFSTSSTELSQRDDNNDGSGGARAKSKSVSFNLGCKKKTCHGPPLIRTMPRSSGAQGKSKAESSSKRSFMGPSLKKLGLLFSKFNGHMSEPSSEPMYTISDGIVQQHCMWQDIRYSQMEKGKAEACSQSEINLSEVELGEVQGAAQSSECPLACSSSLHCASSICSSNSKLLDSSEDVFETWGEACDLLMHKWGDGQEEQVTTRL
Experiment: Whole-cell patch clamp, block of LaCl3-activated TRPC5 inward current
Format: cell-based
Conditions: TRPC5-expressing HEK293 TREx cells, 80 μM LaCl3, inward current, IC50 estimated from 5 μM and 500 nM, read-out: hTRPC5 Patch La3+ Inwd (nM) (All Batches)
How it was run: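 Whole-cell recordings in induced TRPC5-expressing HEK293 TREx cells, holding −40 mV, 400 ms ramps −120 to +100 mV every 5 s; current activated by 80 μM external LaCl3 and 1,400 nM pipette free Ca2+ (pH 7.2 internal, 7.4 external). Inward block at −80 mV, with LaCl3 present; IC50 estimated from testing at 5 μM and 500 nM.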

IC50	Compound
1000 to 2000 nM	C=C(CC(=O)OCC)c1nc2c(c(=O)n(C)c(=O)n2C)n1Cc1cccc(Br)c1 [Compound 123, ethyl 3-(7-(3-bromobenzyl)-1,3-dimethyl-2,6-dioxo-2,3,6,7-tetrahydro-1H-purin-8-yl)but-3-enoate]
2000 to 10000 nM	CCCOC(=O)Cc1nc2c(c(=O)n(C)c(=O)n2C)n1Cc1cccc(Br)c1 [Compound 26, Propyl-2-(7-(3-bromobenzyl)-1,3-dimethyl-2,6-dioxo-2,3,6,7-tetrahydro-1H-purin-8-yl)-acetate]
2000 to 10000 nM	C=Cc1nc2c(c(=O)n(C)c(=O)n2C)n1Cc1cccc(Br)c1 [Compound 41, 7-(3-Bromobenzyl)-1,3-dimethyl-8-vinyl-1H-purine-2,6(3H,7H)-dione]
100 to 500 nM	Cn1c(=O)c2c(nc(SCc3ccccc3F)n2Cc2ccc(Cl)c(Cl)c2)n(C)c1=O [Compound 58]
2000 to 10000 nM	Cn1c(=O)c2c(nc(Cc3cccc(C#N)c3)n2Cc2cccc(Br)c2)n(C)c1=O [Compound 101]
2000 to 10000 nM	Cn1c(=O)c2c(nc(Oc3cccc(C#N)c3)n2Cc2cccc(Br)c2)n(C)c1=O [Compound 112, 3-(7-(3-bromobenzyl)-1,3-dimethyl-2,6-dioxo-2,3,6,7-tetrahydro-1H-purin-8-yloxy)benzonitrile]
2000 to 10000 nM	Cn1c(=O)c2c(nc(Oc3cccc(C(F)(F)F)c3)n2CCCc2ccc(Cl)cc2)n(C)c1=O [Compound 195]
100 to 500 nM	COc1cc(Cn2c(Oc3cccc(OC(F)(F)F)c3)nc3c2c(=O)n(C)c(=O)n3C)ccc1Cl [Compound 205, 7-(4-chloro-3-methoxybenzyl)-1,3-dimethyl-8-(3-(trifluoromethoxy)phenoxy)-1H-purine-2,6(3H,7H)-dione]
2000 to 10000 nM	Cn1c(=O)c2c(nc(Oc3cccc(CO)c3)n2Cc2cccc(Cl)c2)n(C)c1=O [Compound 140]
1000 to 2000 nM	CCOCC(C)(C)Sc1nc2c(c(=O)n(C)c(=O)n2C)n1Cc1cccc(Br)c1 [Compound 56, 7-(3-bromobenzyl)-8-(1-ethoxy-2-methylpropan-2-ylthio)-1,3-dimethyl-1H-purine-2,6(3H,7H)-dione]
1000 to 2000 nM	CC(=O)c1cccc(Oc2nc3c(c(=O)n(C)c(=O)n3C)n2Cc2cccc(Br)c2)c1 [Compound 114, 8-(3-acetylphenoxy)-7-(3-bromobenzyl)-1,3-dimethyl-1H-purine-2,6(3H,7H)-dione]
2000 to 10000 nM	Cc1nc2c(c(=O)n(C)c(=O)n2C)n1Cc1cccc(Br)c1 [Compound 24, 7-(3-bromobenzyl)-1,3,8-trimethyl-1H-purine-2,6(3H,7H)-dione]
500 to 1000 nM	CCOC(=O)CCC(C)c1nc2c(c(=O)n(C)c(=O)n2C)n1Cc1cccc(Br)c1 (stereo not shown) [Compound 135, Ethyl 4-(7-(3-bromobenzyl)-1,3-dimethyl-2,6-dioxo-2,3,6,7-tetrahydro-1H-purin-8-yl)pentanoate]
1000 to 2000 nM	CCOC(=O)c1cccc(Cc2nc3c(c(=O)n(C)c(=O)n3C)n2Cc2cccc(Br)c2)c1 [Compound 102, ethyl 3-((7-(3-bromobenzyl)-1,3-dimethyl-2,6-dioxo-2,3,6,7-tetrahydro-1H-purin-8-yl)methyl)benzoate]
2000 to 10000 nM	CCCN(C)CCc1nc2c(c(=O)n(C)c(=O)n2C)n1Cc1cccc(Br)c1 [Compound 48, 7-(3-Bromobenzyl)-1,3-dimethyl-8-(2-(methyl(propyl)amino)ethyl)-1H-purine-2,6(3H,7H)-dione hydrochloride]
2000 to 10000 nM	CN(Cc1ccccc1)c1nc2c(c(=O)n(C)c(=O)n2C)n1Cc1ccc(Cl)c(Cl)c1 [Compound 67]
1000 to 2000 nM	CCOCCS(=O)(=O)c1nc2c(c(=O)n(C)c(=O)n2C)n1Cc1cccc(Br)c1 [Compound 14, 7-(3-bromobenzyl)-8-(2-ethoxyethylsulfonyl)-1,3-dimethyl-1H-purine-2,6(3H,7H)-dione]
< 100 nM	Cc1cccc(Cn2c(Oc3cccc(OC(F)(F)F)c3)nc3c2c(=O)n(C)c(=O)n3C)c1 [Compound 167, 1,3-dimethyl-7-(3-methylbenzyl)-8-(3-(trifluoromethoxy)phenoxy)-1H-purine-2,6(3H,7H)-dione]
100 to 500 nM	CCOC(=O)C(C)(C)Cc1nc2c(c(=O)n(C)c(=O)n2C)n1Cc1cccc(Br)c1 [Compound 97, Ethyl 3-(7-(3-bromobenzyl)-1,3-dimethyl-2,6-dioxo-2,3,6,7-tetrahydro-1H-purin-8-yl)-2-2-dimethylpropanoate]

IC50	Compound
500 to 1000 nM	CCOC(=O)C(C)Cc1nc2c(c(=O)n(C)c(=O)n2C)n1Cc1cccc(Br)c1 (stereo not shown) [Compound 87]
< 100 nM	Cn1c(=O)c2c(nc(OCc3cccc(C(F)(F)F)c3)n2Cc2ccc(Cl)cc2)n(C)c1=O [Compound 145, 7-(4-chlorobenzyl)-1,3-dimethyl-8-(3-(trifluoromethyl)benzyloxy)-1H-purine-2,6(3H,7H)-dione]
1000 to 2000 nM	Cn1c(=O)c2c(nc(SCCCC#N)n2Cc2cccc(Cl)c2)n(C)c1=O [Compound 62]
2000 to 10000 nM	CCc1coc(CSc2nc3c(c(=O)n(C)c(=O)n3C)n2Cc2cccc(C#N)c2)n1 [Compound 170, 3-((8-((4-ethyloxazol-2-yl)methylthio)-1,3-dimethyl-2,6-dioxo-2,3-dihydro-1H-purin-7(6H)-yl)methyl)benzonitrile]
2000 to 10000 nM	Cc1coc(-c2cccc(Cc3nc4c(c(=O)n(C)c(=O)n4C)n3Cc3cccc(Br)c3)c2)n1 [Compound 104]
2000 to 10000 nM	Cc1c(Oc2nc3c(c(=O)n(C)c(=O)n3C)n2Cc2ccc(Cl)cc2)cccc1C(F)(F)F [Compound 207, 7-(4-chlorobenzyl)-1,3-dimethyl-8-(2-methyl-3-(trifluoromethyl)phenoxy)-1H-purine-2,6(3H,7H)-dione]
< 100 nM	CCc1coc(CSc2nc3c(c(=O)n(C)c(=O)n3C)n2Cc2ccc(Cl)cc2)n1 [Compound 146, 7-(4-chlorobenzyl)-8-((4-ethyloxazol-2-yl)methylthio)-1,3-dimethyl-1H-purine-2,6(3H,7H)-dione]
2000 to 10000 nM	CN(C)Cc1cccc(Oc2nc3c(c(=O)n(C)c(=O)n3C)n2Cc2cccc(Cl)c2)c1 [Compound 153, 7-(3-Chlorobenzyl)-8-(3-((dimethylamino)methyl)phenoxy)-1,3-dimethyl-1H-purine-2,6(3H,7H)-dione hydrochloride]
2000 to 10000 nM	Cn1c(=O)c2c(nc(CC(=O)NCCO)n2Cc2cccc(Br)c2)n(C)c1=O [Compound 38, 2-(7-(3-Bromobenzyl)-1,3-dimethyl-2,6-dioxo-2,3,6,7-tetrahydro-1H-purin-8-yl)-N-(2-hydroxyethyl)acetamide]
500 to 1000 nM	CCCOCCc1nc2c(c(=O)n(C)c(=O)n2C)n1Cc1cccc(Cl)c1 [Compound 107]
2000 to 10000 nM	Cn1c(=O)c2c(nc(Oc3cccc(C(F)(F)F)c3)n2-c2ccc(Cl)cc2)n(C)c1=O [Compound 196]
2000 to 10000 nM	CCCNCCc1nc2c(c(=O)n(C)c(=O)n2C)n1Cc1cccc(Br)c1 [Compound 46]
2000 to 10000 nM	CCCC(O)c1cccc(Oc2nc3c(c(=O)n(C)c(=O)n3C)n2Cc2cccc(Br)c2)c1 (stereo not shown) [Compound 173, 7-(3-bromobenzyl)-8-(3-(1-hydroxybutyl)phenoxy)-1,3-dimethyl-1H-purine-2,6(3H,7H)-dione]
100 to 500 nM	CCCOCCc1nc2c(c(=O)n(C)c(=O)n2C)n1Cc1cccc(-c2ccccc2)c1 [Compound 128, 7-(biphenyl-3-ylmethyl)-1,3-dimethyl-8-(2-propoxyethyl)-1H-purine-2,6(3H,7H)-dione]
500 to 1000 nM	CCc1coc(CSc2nc3c(c(=O)n(C)c(=O)n3C)n2Cc2ccc(OC)cc2)n1 [Compound 131, 8-((4-ethyloxazol-2-yl)methylthio)-7-(4-methoxybenzyl)-1,3-dimethyl-1H-purine-2,6(3H,7H)-dione]
100 to 500 nM	COCCCSc1nc2c(c(=O)n(C)c(=O)n2C)n1Cc1cccc(Br)c1 [Compound 19, 7-(3-bromobenzyl)-8-(3-methoxypropylthio)-1,3-dimethyl-1H-purine-2,6(3H,7H)-dione]
2000 to 10000 nM	Cc1ccc(Oc2nc3c(c(=O)n(C)c(=O)n3C)n2Cc2cccc(Cl)c2)cc1 [Compound 76]
2000 to 10000 nM	CNCc1cccc(Oc2nc3c(c(=O)n(C)c(=O)n3C)n2Cc2ccc(Cl)cc2)c1 [Compound 163, 7-(4-Chlorobenzyl)-1,3-dimethyl-8-(3-((methylaminol)methyl)phenoxy)-1H-purine-2,6(3H,7H)-dione hydrochloride]
